Like-named read-outs stand apart in the source and are kept apart here.
How the values were obtained:
[1] = test system: A204; test: Efficacy screening assay; assay type: cell-based; settings: A204, muscle
Description: The experiment was performed by Oncolead GmbH & Co. KG (Karlsfeld , Germany), based on a standardized screening procedure . Cell lines were purchased directly from the ATCC, NCI and DSMZ cell line c ollections. Cells used for the study had undergone less than 20 passages. To ensure the absence of potential contamination and wrong assignment, all cell lines were tested using a whole genome assay (Agilent, USA). All cell lines were grown as recommended by the suppliers and with addition of 100 U/mL penicillin G and 100 µg/mL; streptomycin. Cell growth and treatments were performed in Nunclon D 96 -well plates (NUNC, Germany). The optimal seeding density for each cell line was determined to ensure exponential growth for the duration of the experiment. All cells growing without anti-cancer agents were sub-conﬂuent by the end of the treatment, as determined by visual inspection.
After an initial 24 h pre-growth period, the compounds were added. The vehicle concentration […]
was 0.1% DMSO. After incubation at 37°C for 72 h, the culture medium was aspirated, and the cells were precipitated by the addition of 10% trichloroacetic acid (Sigma-Aldrich, Missouri, US). After overnight incubation at 4°C, the plates were washed three times with deionized water. The precipitates were then stained with SRB (0.4% wt/v sulforhodamine B solution in 1% acetic acid, Sigma-Aldrich, Missouri, US). Afterwards, the plates were washed six times with 1% acetic acid to remove unbound stain. After drying the plates at room temperature, the bound SRB was solubilized with 10 mM Tris base and the optical density was measured at 520 nm using a Victor2 plate reader (Perkin Elmer, Germany). Blank OD values were subtracted from mean OD values for each concentration. The nonlinear curve ﬁtting and EC50 calculations were per formed using XLﬁt and algorithm “205” (ID Business […]
one-way ANOVA and multiple comparison (Dunnett) was performed for compound treatments compared to vehicle control. The adjusted p-values with 95% confidence interval were reported as significant. For comparison of EC50 values in Figure 1F, one-way ANOVA with multiple comparison testing (Tukey) was performed. Multiplicity adjusted p -values for the EC50 with sorafenib versus resminostat for each cell line and comparison between cell lines for sorafenib are presented (95% confidence interval for significance testing). For comparison of EC50 data in Figure 2B, one-way ANOVA with multiple comparison testing (Tukey) was performed. Multiplicity adjusted p-values with 95% confidence interval was applied. For the invasion assays in Figure 4, one-way ANOVA with multiple comparison testing (Tukey) was performed. Multiplicity adjusted p-values with 95% confidence interval was applied. The adjusted p-values comparing vehicle control without vs. with platelets and compound

[2] = test system: Hep3B2.1-7 human hepatic carcinoma; settings: for Survival / Tumour weight, Mean: 21 days; for Tumour weight, Mean: SCID mice
Source text: The orthotopic xenograft mouse model of Hep3B2.1–7 human hepatic carcinoma was previously established. Tumors were created by injection of 2.5 × 10^6 Hep3B2.1-7 cells (ATCC, RRID:CVCL_0326; Virginia, Manassas, USA) into the main lobe of the liver of anaesthetized female SCID mice (C.B-17-Igh-1bPrkdc(scid)). […] Treatments were continued for 21 days. Treatment of animals was ceased when the body weight dropped below 85% of that on entry of the study. Only mice culled at the termination date were used to determine the tumor weight. The experiment was conducted by vivoPharm pty Ltd (Bundoora, Australia) in accordance with the principles outlined in the “Australian Code of Practice for the Care and Use of Animals for Scientific Purposes”, 7th Edition, 2004 (National Health and Medical Research Council, Canberra, Australia). All procedures involving animals were reviewed and approved by the University of Adelaide Animal Ethics Committee. The study was carried out in compliance with the ARRIVE guidelines (http://www.nc3rs.org.uk/page.asp?id=1357). […]
invasion assay. The ODs of the invaded cells were normalized relative to ODs from tissue […]
Orthotopic xenograft mouse model
The orthotopic xenograft mouse model of Hep3B2.1-7 human hepatic carcinom a was previously established. The experiment was conducted by vivoPharm pty Ltd (Australia) in accordance with the principles outlined in the Australian Code of Practice for the Care and Use of Animals for Scientific Purposes, 7th Edition, 2004 (National Health and Medical Research Council). Procedures involving the care and use of animals in thi s study were reviewed and approved by the University of Adelaide Animal Ethics Committee. The study was carried out in compliance with the ARRIVE guidelines
(http://www.nc3rs.org.uk/page.asp?id=1357).
The animals were delivered to the test facility 1 1 days prior inoculation. On arrival, all animals received a detailed physical examination, including body weight measurement by the […]
technical staff. […] Each a nimal was identified by a transponder (Bar Code Data Systems Pty Ltd, Botany Bay, NSW, Australia) that could be scanned with a barcode reader (DataMars LabMax I). The transponder was implanted by subcutaneous injection between the shoulder blades while the mouse was under isoflurane-induced anaesthesia. The animals were housed in groups of six in micro-isolator cages (two cages per group). Each cage was clearly labelled with a cage card indicating study number, group, gender, and prescribed dose concentration and dose volume. The animals were kept in a controlled environment (targeted ranges: temperature 21 ± 3°C, humidity 30 -70%, 15 air changes per hour), with a light/dark cycle each of 12 hours, and under barrier (quarantine) conditions. Temperature and relative humidity were monitored continuously. All animals were subjected to the same environmental conditions. A standard certified commercial rodent diet (Rat and Mouse Cubes, Specialty Feeds Pty Ltd, Glen Forrest, WA, Australia) and tap water were provided to the animals ad libitum. Food supply was sterilized by autoclaving, and water […]
supply was sterilized by acidification with hydrochloric acid (pH 2.4-2.7) by Laboratory Animal Services, University of Adelaide (Adelaide, SA, Australia). Additional feed (a nimal seed, Magill Grain Store, Magill, SA, Australia), as well as wet standard feed was provided to all animals from Day 7 onwards, as a measure to minimize body w eight loss. The extent of adverse reaction was assessed during the study and mice were culled if severe adverse […]
The age range of the mice were 12-16 weeks at
Hep3B2.1-7 human hepatic carcinoma cells were sourced from the American Type Culture […]
Collection (ATCC; Virginia, USA).

SMILES: CN(C)Cc1ccc(S(=O)(=O)n2ccc(/C=C/C(=O)NO)c2)cc1 [resminostat, Resminostat]
- EC50 ([1]; 72 h, read-out: EC50): 910 nM
- EC50 ([1]; Homo sapiens, A204, 72 h, log of EC50, negative, read-out: log(EC50) (converted)): 912 nM
- EC50 ([1]; Homo sapiens, A204, 72 h, read-out: EC50): 906 nM
- Survival ([2]; 15 mg/kg oral once daily): 10/12
- Tumour weight, Mean ([2]; 15 mg/kg oral once daily): 2.55 g
- Survival ([2]; 40 mg/kg oral once daily): 10/12
- Tumour weight, Mean ([2]; 40 mg/kg oral once daily): 1.83 g
- tumor weight compared to the vehicle control ([2]; daily resminostat 15 and 40 mg/kg, sorafenib 40 mg/kg, or combination (Fig. 1B)): significantly reduced tumor weight

— paper PMC8100298, “Histone deacetylase inhibitor resminostat in combination with sorafenib counteracts platelet-mediated pro-tumoral effects in hepatocellular carcinoma” (Scientific Reports, 2021)
